Test results taken from patent publication US6495683B2, “4-oxo-4,7-dihydro-thieno[2,3-b]pyridine-5-carboxamides as antiviral agents” (Pharmacia and Upjohn Company, priority 1999, dated 2002).
Counter-ions that a name gives are not always drawn. Like-named read-outs stand apart in the source and are kept apart here.

Key:
HSV polymerase = HSV polymerase (Human herpesvirus 1, UniProt P04293); experiment: biochemical; conditions: read-out: polymerase IC50 (μM) HSV
HCMV polymerase = biological target: T1, HCMV polymerase (Human cytomegalovirus, UniProt P08546); experiment: biochemical; conditions: modified SPA assay: compounds diluted in 100% DMSO, 4.5 mM DTT in polymerase buffer; read-out: polymerase IC50 (μM) HCMV
T1 construct: made in house; host or cells: recombinant baculovirus-infected SF-9 cells
T1 sequence (P08546 whole entry): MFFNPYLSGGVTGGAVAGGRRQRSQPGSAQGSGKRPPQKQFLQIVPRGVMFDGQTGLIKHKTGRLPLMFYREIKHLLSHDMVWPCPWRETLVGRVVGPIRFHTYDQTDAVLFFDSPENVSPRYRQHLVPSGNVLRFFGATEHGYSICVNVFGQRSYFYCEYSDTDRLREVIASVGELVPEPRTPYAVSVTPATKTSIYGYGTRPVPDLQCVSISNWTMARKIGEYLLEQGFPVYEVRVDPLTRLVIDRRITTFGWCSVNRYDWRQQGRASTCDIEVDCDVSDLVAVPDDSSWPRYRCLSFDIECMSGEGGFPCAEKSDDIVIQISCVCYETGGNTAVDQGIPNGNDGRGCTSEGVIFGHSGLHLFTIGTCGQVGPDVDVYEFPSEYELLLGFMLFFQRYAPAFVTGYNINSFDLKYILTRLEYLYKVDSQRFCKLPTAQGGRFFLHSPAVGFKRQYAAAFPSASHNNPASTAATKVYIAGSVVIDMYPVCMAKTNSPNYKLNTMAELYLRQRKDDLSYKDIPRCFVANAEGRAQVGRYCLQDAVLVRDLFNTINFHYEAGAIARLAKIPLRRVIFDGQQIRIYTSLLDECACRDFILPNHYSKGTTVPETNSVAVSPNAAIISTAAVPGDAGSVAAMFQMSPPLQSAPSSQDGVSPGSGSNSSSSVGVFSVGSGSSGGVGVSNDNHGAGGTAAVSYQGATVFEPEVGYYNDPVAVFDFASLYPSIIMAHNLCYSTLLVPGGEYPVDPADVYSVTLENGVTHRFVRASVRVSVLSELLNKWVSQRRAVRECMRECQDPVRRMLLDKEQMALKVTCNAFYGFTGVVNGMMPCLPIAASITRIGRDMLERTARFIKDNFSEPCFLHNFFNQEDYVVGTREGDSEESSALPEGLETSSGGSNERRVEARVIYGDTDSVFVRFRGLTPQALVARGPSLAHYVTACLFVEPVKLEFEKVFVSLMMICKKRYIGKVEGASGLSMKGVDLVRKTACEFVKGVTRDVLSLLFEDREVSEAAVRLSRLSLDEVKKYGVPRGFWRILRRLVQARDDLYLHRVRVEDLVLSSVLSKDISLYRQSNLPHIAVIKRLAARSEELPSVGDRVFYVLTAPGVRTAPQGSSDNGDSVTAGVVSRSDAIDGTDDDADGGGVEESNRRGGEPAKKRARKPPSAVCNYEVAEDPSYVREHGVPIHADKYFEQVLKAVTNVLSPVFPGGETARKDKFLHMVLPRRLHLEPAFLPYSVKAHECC
Method: The HCMV polymerase assay is performed using a scintillation proximity assay (SPA) as described in several references, such as N. D. Cook, et al., Pharmaceutical Manufacturing International, pages 49-53 (1992); K. Takeuchi, Laboratory Practice, September issue (1992); U.S. Pat. No. 4,568,649 (1986); which are incorporated by reference herein. Reactions are performed in 96-well plates. The assay is conducted in 100 μl volume with 5.4 mM HEPE (pH 7.5), 11.7 mM KCl, 4.5 mM MgCl2, 0.36 mg/ml BSA, and 90 nM ^3H-dTTP. Assays are run with and without CHAPS, (3-[(3-cholamidopropyl)-dimethylammonio]-1-propane-sulfonate) at a final concentration of 2 mM. HCMV polymerase is diluted in enzyme dilution buffer containing 50% glycerol, 250 mM NaCl, 10 mM HEPES (pH 7.5), 100 μg/ml BSA, and 0.01% sodium azide. The HCMV polymerase, which is expressed in recombinant baculovirus-infected SF-9 cells and purified according to literature procedures, is added at 10% (or 10 μl) of the final reaction volume, i.e., 100 μl. Compounds are diluted in 50% DMSO and 10 μl are added to each well. Control wells contain an equivalent concentration of DMSO. Unless noted otherwise, reactions are initiated via the addition of 6 nM biotinylated poly(dA)-oligo(dT) template/primer to reaction mixtures containing the enzyme, substrate, and compounds of interest. Plates are incubated in a 25 C or 37 C H2O bath and terminated via the addition of 40 μl/reaction of 0.5 M EDTA (pH 8) per well. Reactions are terminated within the time-frame during which substrate incorporation is linear and varied depending upon the enzyme and conditions used, i.e., 30 min. for HCMV polymerase. Ten μl of streptavidin-SPA beads (20 mg/ml in PBS/10% glycerol) are added following termination of the reaction. Plates are incubated 10 min. at 37 ° C., then equilibrated to room temperature, and counted on a Packard Topcount. Linear regressions are performed and IC50's are calculated using computer software.
A modified version of the above HCMV polymerase assay is performed as described above, but with the following changes: Compounds are diluted in 100% DMSO until final dilution into assay buffer. In the previous assay, compounds are diluted in 50% DMSO. 4.5 mM dithiothreotol (DTT) is added to the polymerase buffer.

VZV polymerase = VZV polymerase (Varicella-zoster virus, UniProt P09252); experiment: biochemical
Sequence of VZV polymerase (P09252 whole entry): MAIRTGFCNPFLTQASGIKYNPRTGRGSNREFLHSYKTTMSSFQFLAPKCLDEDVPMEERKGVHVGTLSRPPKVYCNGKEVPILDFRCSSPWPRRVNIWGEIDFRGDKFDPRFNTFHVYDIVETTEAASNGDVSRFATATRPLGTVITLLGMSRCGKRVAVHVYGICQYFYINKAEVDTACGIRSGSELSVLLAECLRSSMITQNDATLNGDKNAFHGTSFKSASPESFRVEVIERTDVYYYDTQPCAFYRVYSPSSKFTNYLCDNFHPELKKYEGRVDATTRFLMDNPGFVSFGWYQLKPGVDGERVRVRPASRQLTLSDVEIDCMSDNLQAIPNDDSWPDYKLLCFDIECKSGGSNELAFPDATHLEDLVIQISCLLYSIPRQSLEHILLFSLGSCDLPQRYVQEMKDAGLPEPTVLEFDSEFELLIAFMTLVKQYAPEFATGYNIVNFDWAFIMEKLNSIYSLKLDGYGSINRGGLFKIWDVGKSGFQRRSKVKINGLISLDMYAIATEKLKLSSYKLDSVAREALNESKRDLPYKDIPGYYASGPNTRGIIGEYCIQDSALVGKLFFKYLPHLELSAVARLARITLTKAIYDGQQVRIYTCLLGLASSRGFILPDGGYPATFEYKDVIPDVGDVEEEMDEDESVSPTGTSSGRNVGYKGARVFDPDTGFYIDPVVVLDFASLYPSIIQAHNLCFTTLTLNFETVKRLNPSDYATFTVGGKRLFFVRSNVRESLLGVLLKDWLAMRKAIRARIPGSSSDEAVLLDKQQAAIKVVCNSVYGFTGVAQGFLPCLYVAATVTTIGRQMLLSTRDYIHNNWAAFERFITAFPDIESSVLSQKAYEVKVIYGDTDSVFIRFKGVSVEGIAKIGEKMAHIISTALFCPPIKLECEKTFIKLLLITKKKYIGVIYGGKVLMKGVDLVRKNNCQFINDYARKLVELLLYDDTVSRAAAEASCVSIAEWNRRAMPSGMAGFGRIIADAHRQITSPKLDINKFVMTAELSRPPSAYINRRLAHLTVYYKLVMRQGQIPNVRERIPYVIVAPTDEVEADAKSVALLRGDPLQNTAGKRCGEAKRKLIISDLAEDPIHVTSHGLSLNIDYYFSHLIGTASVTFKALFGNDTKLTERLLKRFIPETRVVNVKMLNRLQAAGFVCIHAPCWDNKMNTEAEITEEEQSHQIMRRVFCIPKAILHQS

[1] = read-out: polymerase IC50 (μM) VZV

Sequence of HSV polymerase (P04293 whole entry): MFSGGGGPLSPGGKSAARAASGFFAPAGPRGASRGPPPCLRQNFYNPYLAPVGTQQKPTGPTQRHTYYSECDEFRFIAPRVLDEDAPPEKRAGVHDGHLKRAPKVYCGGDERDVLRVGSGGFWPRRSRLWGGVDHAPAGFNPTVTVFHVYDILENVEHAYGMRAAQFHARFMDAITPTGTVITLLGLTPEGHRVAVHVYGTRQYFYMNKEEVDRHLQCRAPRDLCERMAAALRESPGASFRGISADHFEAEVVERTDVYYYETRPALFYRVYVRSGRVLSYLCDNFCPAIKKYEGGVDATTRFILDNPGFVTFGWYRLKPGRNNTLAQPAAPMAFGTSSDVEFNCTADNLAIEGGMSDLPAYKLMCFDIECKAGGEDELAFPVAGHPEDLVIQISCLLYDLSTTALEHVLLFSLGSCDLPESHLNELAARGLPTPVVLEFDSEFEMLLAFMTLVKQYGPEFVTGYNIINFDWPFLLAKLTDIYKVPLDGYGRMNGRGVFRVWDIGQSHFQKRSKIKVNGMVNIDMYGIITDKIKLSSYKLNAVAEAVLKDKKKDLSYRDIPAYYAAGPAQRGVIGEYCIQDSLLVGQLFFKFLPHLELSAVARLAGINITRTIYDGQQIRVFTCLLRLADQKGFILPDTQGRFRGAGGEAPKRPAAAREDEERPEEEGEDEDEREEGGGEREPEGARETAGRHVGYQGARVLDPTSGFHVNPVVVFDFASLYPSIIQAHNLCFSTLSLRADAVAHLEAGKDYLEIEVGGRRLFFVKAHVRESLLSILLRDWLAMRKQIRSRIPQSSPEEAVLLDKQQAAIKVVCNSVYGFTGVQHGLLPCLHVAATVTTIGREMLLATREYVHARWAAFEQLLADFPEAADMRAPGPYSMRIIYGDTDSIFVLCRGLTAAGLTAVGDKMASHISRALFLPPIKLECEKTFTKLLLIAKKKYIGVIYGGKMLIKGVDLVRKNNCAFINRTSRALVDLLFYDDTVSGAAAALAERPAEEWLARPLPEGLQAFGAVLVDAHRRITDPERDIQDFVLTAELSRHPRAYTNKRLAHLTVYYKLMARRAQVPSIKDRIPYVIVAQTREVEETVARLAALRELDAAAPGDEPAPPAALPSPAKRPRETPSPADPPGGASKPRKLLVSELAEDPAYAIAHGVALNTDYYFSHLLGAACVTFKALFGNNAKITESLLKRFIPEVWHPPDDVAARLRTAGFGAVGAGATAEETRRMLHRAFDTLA

SMILES	IC50 (HSV polymerase) [µM]	IC50 (HCMV polymerase) [µM]	IC50 (VZV polymerase) [µM]	IC50 (VZV polymerase; [1]) [µM]	melting point
Cn1cc(C(=O)NCc2ccc(Cl)cc2)c(=O)c2cc(CCCO)sc21 [Example 25, N-(4-Chlorobenzyl)-2-(3-hydroxypropyl)-7-methyl4-oxo-4,7-7dihydrothieno[2,3-b]pyridine-5-carboxamide]	0.45	0.4	0.46	–	–
CCN(CC)CCn1cc(C(=O)NCc2ccc(Cl)cc2)c(=O)c2cc(C#CCO)sc21 [Example 18, N-(4-Chlorobenzyl)-7-[2-(diethylamino)ethyl]-2-(3hydroxy-1-propynyl)4-oxo4,7-dihydrothieno[2,3-b]pyridine-5-carboxamide hydrochloride]	0.95	1.7	–	0.39	–
O=C(NCc1ccc(Cl)cc1)c1cn(CCO)c2sc(C#CCO)cc2c1=O [Example 17, N-(4-Chlorobenzyl)-7-(2-hydroxyethyl)-2-(3-hydroxy-1-5 propynyl)-4-oxo-4,7-dihydrothieno[2,3-b]pyridine-5-carboxamide]	0.89	0.92	–	0.28	–
O=C(NCc1ccc(Cl)cc1)c1cn(CCO)c2sc(CCCO)cc2c1=O [Example 21, N-(4-Chlorobenzyl)-7-(2-hydroxyethyl)-2-(3-hydroxypropyl)4-oxo-4,7-dihydrothieno[2,3-b]pyridine-5-carboxamide]	–	< 0.78	–	–	174 to 178 °C
O=C(NCc1ccc(Cl)cc1)c1cnc2sc(S(=O)(=O)N3CCOCC3)cc2c1O [Example 3, N-(4-Chlorobenzyl)-4-hydroxy-2-(4-morpholinylsulfonyl)-thieno[2,3-b]pyridine-5-carboxamide]	–	15.9	–	–	> 300 °C
O=C(O)Cn1cc(C(=O)NCc2ccc(Cl)cc2)c(=O)c2cc(C#CCO)sc21 [Example 19, 2-[5-{[(4-Chlorobenzyl)amino]carbonyl}-2-(3-hydroxy-1-propynyl)4-oxothieno[2,3-b]pyridin-7(4H)-yl]acetic Acid]	–	0.86	–	–	230 to 235 °C (dec.)
CCn1cc(C(=O)NCc2ccc(Cl)cc2)c(=O)c2cc(CN3CCOCC3)sc21 [Example 42, N-(4-Chlorobenzyl)-7-ethyl-2-(4-morpholinylmethyl)-4-oxo-4,7-dihydrothieno[2,3-b]pyridine-5-carboxamide]	–	1.9	–	–	194 to 196 °C
CCn1cc(C(=O)NCc2ccc(Cl)cc2)c(=O)c2cc(C#CCO)sc21 [Example 14, N-(4-Chlorobenzyl)-7-ethyl-2-(3-hydroxy-1-propynyl)-4-oxo4,7-dihydrothieno[2,3-b]pyridine-5-carboxamide]	–	1.8	–	–	217 to 219 °C
CCn1cc(C(=O)NCc2ccc(Cl)cc2)c(=O)c2cc(C#CCOC(=O)CN3CCOCC3)sc21 [Example 30, 3-(5-{[(4-Chlorobenzyl)amino]carbonyl}-7-ethyl-4-oxo-4,7-dihydrothieno[2,3-b]pyridin-2-yl)-2-propynyl 2-(4-Morpholinyl)acetate]	–	28.2	–	–	168 to 170 °C
Cn1cc(C(=O)NCc2ccc(Cl)cc2)c(=O)c2cc(CN3CCSCC3)sc21 [Example 38, N-(4-Chlorobenzyl)-7-methyl-4-oxo-2-(4-thiomorpholinyl-methyl)-4,7-dihydrothieno[2,3-b]pyridine-5-carboxamide]	–	2.6	–	–	215 to 218 °C (dec.)
CCn1cc(C(=O)NCc2ccc(Cl)cc2)c(=O)c2cc(CCCCO)sc21 [Example 20, N-(4-Chlorobenzyl)-7-ethyl-2-(4-hydroxybutyl)4-oxo-4,7-dihydrothieno[2,3-b]pyridine-5-carboxamide]	–	0.18	–	–	136 to 139 °C
O=C(NCc1ccc(Cl)cc1)c1cn(CC2CCCO2)c2sc(CN3CCOCC3)cc2c1=O (centres unmarked) [Example 52]	–	1.5	–	–	191 to 195 °C
O=C(NCc1ccc(Cl)cc1)c1cnc2sc(CO)cc2c1O [Example 34, N-(4-Chlorobenzyl)-4-hydroxy-2-(hydroxymethyl)thieno[2,3-b]pyridine-5-carboxamide]	–	> 20	–	–	205 to 210 °C
CN(Cc1cc2c(=O)c(C(=O)NCc3ccc(Cl)cc3)cn(C)c2s1)CC(O)c1ccc(O)cc1 (centres unmarked) [Example 39, N-(4-Chlorohenzyl)-2-(((2-hydroxy-2-(4-hydroxyphenyl)ethyl)(methyl)amino)methyl)-7-methyl-4-oxo-4,7-dihydrothieno[2,3-b]pyridine-5-carboxamide]	–	< 0.31	–	–	187 °C
CC(C)n1cc(C(=O)NCc2ccc(Cl)cc2)c(=O)c2cc(C#CCO)sc21 [Example 27, N-(4-Chlorobenzyl)-2-(3-hydroxy-1-propynyl)-7-isopropyl-4-oxo-4,7-dihydrothieno[2,3-b]pyridine-5-carboxamide]	–	4.2	–	–	190 to 196 °C
Cn1cc(C(=O)NCc2ccc(Cl)cc2)c(=O)c2cc(C#CCO)sc21 [Example 24, N-(4-Chlorobenzyl)-2-(3-hydroxy-1-propynyl)-7-methyl-4-oxo-4,7-dihydrothieno[2,3-b]pyridine-5-carboxamide]	–	1	–	–	206 to 208 °C
O=C(NCc1ccc(Cl)cc1)c1cn(CCCc2ccccc2)c2sc(CN3CCOCC3)cc2c1=O [Example 51, N-(4-Chlorobenzyl)-2-(4-morpholinylmethyl)-4-oxo-7-(3-phenylpropyl)-4,7-dihydrothieno[2,3-b]pyridine-5-carboxamide]	–	1.2	–	–	169 to 171 °C
O=C(NCc1ccc(Cl)cc1)c1cn(CCN2CCCC2)c2sc(CN3CCOCC3)cc2c1=O [Example 53, N-(4-Chlorobenzyl)-2-(4-morpholinylmethyl)-4-oxo-7-[2-(1-pyrrolidinyl)ethyl]-4,7-dihydrothieno[2,3-b]pyridine-5-carboxamide]	–	4	–	–	178 to 180 °C
CCN(CC)CCn1cc(C(=O)NCc2ccc(Cl)cc2)c(=O)c2cc(CCCO)sc21 [Example 22, N-(4-Chlorobenzyl)-7-[2-(diethylamino)ethyl]-2-(3-hydroxypropyl)4-oxo4,7-dihydrothieno[2,3-b]pyridine-5-carboxamide Hydrorhloride]	–	0.81	–	–	111 to 114 °C
O=C(NCc1ccc(Cl)cc1)c1cn(Cc2ccncc2)c2sc(CN3CCOCC3)cc2c1=O [Example 55, N-(4-Chlorobenzyl)-2-(4-morpholinylmethyl)-4-oxo-7-(4-pyridinylmethyl)-4,7-dihydrothieno[2,3-b]pyridine-5-carboxamide]	–	5	–	–	208 to 210 °C (dec.)
Cn1cc(C(=O)NCc2ccc(Cl)cc2)c(=O)c2cc(C(=O)N3CCOCC3)sc21 [Example 48, N-(4-Chlorobenzyl)-7-methyl-2-(4-morpholinyl-carbonyl)-4 dothieno[2,3-b]pyridine-5-carboxamide]	–	19	–	–	244 to 245 °C (dec.)
O=C(NCc1ccc(Cl)cc1)c1cn(Cc2ccccc2)c2sc(CN3CCOCC3)cc2c1=O [Example 49, 7-Benzyl-N-(4-chlorobenzyl)-2-(4-morpholinylmethyl)-4-oxo-4,7-dihydrothieno[2,3-b]pyridine-5-carboxamide]	–	3.2	–	–	225 to 226.5 °C
Cn1cc(C(=O)NCc2ccc(F)cc2)c(=O)c2cc(CN3CCOCC3)sc21 [Example 45, N-(4-Fluorobenzyl)-7-methyl-2-(4-morpholinylmethyl)-4-oxo-4,7-dihydrothieno[2,3-b]pyridine-5-carboxamide]	–	2.6	–	–	214 to 216 °C
COCC#Cc1cc2c(O)c(C(=O)NCc3ccc(Cl)cc3)cnc2s1 [Example 6, N-(4-Chlorobenzyl)-4-hydroxy-2-(3-methoxy-1-propynyl)-thieno[2,3-b]pyridine-5-carboxamide]	–	5.8	–	–	215 to 218 °C
O=C(NCc1ccc(Cl)cc1)c1cnc2sc(Br)cc2c1O [Example 4, 2-Bromo-N-(4-chlorobenzyl)-4-hydroxythieno[2,3-b]pyridine-5-carboxamide]	–	10.8	–	–	234 to 236 °C
